The source of these data is patent EP3696177A1, “HETEROCYCLIC COMPOUNDS FOR THE CONTROL OF INVERTEBRATE PESTS” (BASF SE, priority 2019, dated 2020).

Structures are written as SMILES.

The first assay has as its system dichromothrips corbetti. The assay can be described thus: Orchid thrips floral-immersion test. It counts as in vivo. The note with it: 72 h, read-out: mortality in comparison with untreated controls. As for the experimental part:
Dichromothrips corbetti adults used for bioassay are obtained from a colony maintained continu-ously under laboratory conditions. For testing purposes, the test compound is diluted in a 1:1 mix-ture of acetone:water (vol:vol), plus Kinetic at a rate of 0.01% v/v.
Thrips potency of each compound is evaluated by using a floral-immersion technique. Each orchid petal is dipped into treatment solution and allowed to dry in Petri dishes. Treated petals are placed into individual re-sealable plastic along with about 20 adult thrips. All test arenas are held under dark condition and a temperature of about 28°C for duration of the assay. The percent mor-tality is recorded 72 hours after treatment.
A word on the mortality: it is the percentage killed. With `CN1COC(CNC(=O)c2ccc(C3=NOC(c4cc(Cl)cc(C(F)(F)F)c4)(C(F)(F)F)C3)c3c2CCC3)C1=O` (centres unmarked) [Compound I-3-3], the mortality at 300 ppm was above 75%.

For another assay, the system named is Plutella xylostella. Briefly: Diamond back moth (Plutella xylostella) cabbage leaf disc dip test. Format: in vivo. To be noted: foliar, 72 h, read-out: mortality in comparison with untreated controls. Here is the method:
The active compound is dissolved at the desired concentration in a mixture of 1:1 (vol:vol) distilled water: acetone. Surfactant (Kinetic) is added at a rate of 0.01% (vol/vol). The test solution is pre-pared at the day of use.
Cabbage leaf discs (60mm in diameter) are dipped in test solution and air-dried. Treated leaves are placed in petri dishes lined with moistened filter paper and inoculated with ten 3rd instar larvae. Mortality is recorded 72 hours after treatment. Feeding damage is also recorded using a scale of 0-100%.
For `CN1COC(CNC(=O)c2ccc(C3=NOC(c4cc(Cl)cc(C(F)(F)F)c4)(C(F)(F)F)C3)c3c2CCC3)C1=O` (centres unmarked) [Compound I-3-3], the mortality at 300 ppm was above 75%.

The next assay concerns Nephotettix virescens. The assay can be described thus: Rice green leafhopper (Nephotettix virescens) spray test on rice seedlings. It counts as in vivo. To be noted: adults, after 72 hours, read-out: mortality in comparison with untreated controls. As for the experimental part:
Four to five-week old rice seedlings with cut upper leaf portion are cleaned and washed 24 hours before spraying. The active compounds are formulated in 1:1 acetone:water (vol:vol), and 0.01% vol/vol surfactant (Kinetic) is added. Potted rice seedlings are sprayed with 5-6 ml test solution, air dried, covered with Mylar cages and inoculated with 10 adults. Treated rice plants are kept at about 28-29°C and relative humidity of about 50-60%. Percent mortality is recorded after 72 hours.
As to `CN1COC(CNC(=O)c2ccc(C3=NOC(c4cc(Cl)cc(C(F)(F)F)c4)(C(F)(F)F)C3)c3c2CCC3)C1=O` (centres unmarked) [Compound I-3-3], the mortality at 300 ppm was above 75%.

Another assay concerns Nezara viridula. Briefly: Green soldier stink bug (Nezara viridula) soybean pod spray test. It counts as in vivo. The note with it: 120 h, late 3rd instar N. viridula, after 5 days, read-out: mortality in comparison with untreated controls. As for the experimental part:
The active compound is dissolved at the desired concentration in a mixture of 1:1 (vol:vol) distilled water: aceteone. Surfactant (Kinetic) is added at a rate of 0.01% (vol/vol).The test solution is prepared at the day of use.
Soybean pods are placed in 90 x 50 mm glass Petri dishes lined with moistened filter paper and inoculated with ten late 3rd instar N. viridula. Using a hand atomizer, an approximately 2 ml solution is sprayed into each Petri dish. Treated set-up is kept at about 25-26°C and relative humidity of about 65-70%. Percent mortality is recorded after 5 days.
As to `CN1COC(CNC(=O)c2ccc(C3=NOC(c4cc(Cl)cc(C(F)(F)F)c4)(C(F)(F)F)C3)c3c2CCC3)C1=O` (centres unmarked) [Compound I-3-3], the mortality at 300 ppm was above 75%.

The next assay relates to Megoura viciae. Briefly: Vetch aphid (Megoura viciae) broad bean leaf disk test. Format: in vivo. To be noted: foliar, 120 h, read-out: mortality in comparison with untreated controls. As for the experimental part:
For evaluating control of vetch aphid (Megoura viciae) through contact or systemic means the test unit consisted of 24-well-microtiter plates containing broad bean leaf disks.
The compounds were formulated using a solution containing 75% v/v water and 25% v/v DMSO. Different concentrations of formulated compounds were sprayed onto the leaf disks at 2.5 µl, us-ing a custom built micro atomizer, at two replications.
After application, the leaf disks were air-dried and 5 - 8 adult aphids placed on the leaf disks in-side the microtiter plate wells. The aphids were then allowed to suck on the treated leaf disks and incubated at about 23 + 1°C and about 50 + 5 % relative humidity for 5 days. Aphid mortality and fecundity was then visually assessed.
Regarding `CN1COC(CNC(=O)c2ccc(C3=NOC(c4cc(Cl)cc(C(F)(F)F)c4)(C(F)(F)F)C3)c3c2CCC3)C1=O` (centres unmarked) [Compound I-3-3], the mortality at 2500 ppm is above 75%.

The next assay deals with Myzus persicae. The assay can be described thus: Green peach aphid (Myzus persicae) artificial diet/membrane systemic test. Format: in vivo. The note with it: 72 h, read-out: mortality in comparison with untreated controls. The text has this: For evaluating control of green peach aphid (Myzus persicae) through systemic means the test unit consisted of 96-well-microtiter plates containing liquid artificial diet under an artificial membrane.
The compounds were formulated using a solution containing 75% v/v water and 25% v/v DMSO. Different concentrations of formulated compounds were pipetted into the aphid diet, using a cus-tom built pipetter, at two replications.
After application, 5 - 8 adult aphids were placed on the artificial membrane inside the microtiter plate wells. The aphids were then allowed to suck on the treated aphid diet and incubated at about 23 + 1°C and about 50 + 5 % relative humidity for 3 days. Aphid mortality and fecundity was then visually assessed.
For the molecule `CN1COC(CNC(=O)c2ccc(C3=NOC(c4cc(Cl)cc(C(F)(F)F)c4)(C(F)(F)F)C3)c3c2CCC3)C1=O` (centres unmarked) [Compound I-3-3], the mortality at 2500 ppm was above 75%.

Another assay concerns Anthonomus grandis. Briefly: Boll weevil (Anthonomus grandis) insect diet microtiter plate test. It counts as in vivo. To be noted: 120 h, read-out: mortality in comparison with untreated controls (egg and larval mortality). As for the experimental part:
For evaluating control of boll weevil (Anthonomus grandis) the test unit consisted of 96-well-microtiter plates containing an insect diet and 5-10 A. grandis eggs.
The compounds were formulated using a solution containing 75% v/v water and 25% v/v DMSO. Different concentrations of formulated compounds were sprayed onto the insect diet at 5 µl, using a custom built micro atomizer, at two replications.
After application, microtiter plates were incubated at about 25 + 1°C and about 75 + 5 % relative humidity for 5 days. Egg and larval mortality was then visually assessed.
`CN1COC(CNC(=O)c2ccc(C3=NOC(c4cc(Cl)cc(C(F)(F)F)c4)(C(F)(F)F)C3)c3c2CCC3)C1=O` (centres unmarked) [Compound I-3-3]: the mortality at 2500 ppm is above 75%.

The next assay deals with Tetranychus kanzawai. The assay can be described thus: Red spider mite (Tetranychus kanzawai) spray test on cowpea beans. It counts as in vivo. To be noted: topical, 72 h, read-out: mortality in comparison with untreated controls. Here is the method:
The active compound is dissolved at the desired concentration in a mixture of 1:1 (vol:vol) distilled water: acetone. Add surfactant (Kinetic) is added at a rate of 0.01% (vol/vol). The test solution is prepared at the day of use.
Potted cowpea beans of 4-5 days of age are cleaned with tap water and sprayed with 1-2 ml of the test solution using air driven DeVilbiss® hand atomizer at 20- 30 psi (≈ 1,38 to 2,07 bar). The treated plants are allowed to air dry and afterwards inoculated with 30 or more mites by clipping a cassava leaf section from rearing population. Treated plants are placed inside a holding room at about 25-26°C and about 65-70% relative humidity. Estimate percent mortality is assessed 72 hours after treatment.
Consider `CN1COC(CNC(=O)c2ccc(C3=NOC(c4cc(Cl)cc(C(F)(F)F)c4)(C(F)(F)F)C3)c3c2CCC3)C1=O` (centres unmarked) [Compound I-3-3], for which the mortality at 300 ppm is above 75%.

The test system of another assay is Heliothis virescens. The assay can be described thus: Tobacco budworm (Heliothis virescens) insect diet microtiter plate test. It counts as in vivo. The note with it: 120 h, read-out: mortality in comparison with untreated controls (egg and larval mortality). Here is the method: For evaluating control of tobacco budworm (Heliothis virescens) the test unit consisted of 96-well-microtiter plates containing an insect diet and 15-25 H. virescens eggs.
The compounds were formulated using a solution containing 75% v/v water and 25% v/v DMSO. Different concentrations of formulated compounds were sprayed onto the insect diet at 10 µl, us-ing a custom built micro atomizer, at two replications.
After application, microtiter plates were incubated at about 28 + 1°C and about 80 + 5 % relative humidity for 5 days. Egg and larval mortality was then visually assessed.
As for `CN1COC(CNC(=O)c2ccc(C3=NOC(c4cc(Cl)cc(C(F)(F)F)c4)(C(F)(F)F)C3)c3c2CCC3)C1=O` (centres unmarked) [Compound I-3-3], the mortality at 2500 ppm was above 75%.

For the next assay, the system named is Aedes aegypti. Briefly: whole plant or invertebrate. Format: in vivo. To be noted: 48 h, A. aegypti larvae, incubated 2 days, read-out: mortality in comparison with untreated controls (larval mortality). As for the experimental part:
For evaluating control of yellow fever mosquito (Aedes aegypti) the test unit consisted of 96-well-microtiter plates containing 200µl of tap water per well and 5-15 freshly hatched A. aegypti larvae.
The active compounds were formulated using a solution containing 75% (v/v) water and 25% (v/v) DMSO. Different concentrations of formulated compounds or mixtures were sprayed onto the insect diet at 2.5µl, using a custom built micro atomizer, at two replications.
After application, microtiter plates were incubated at 28 + 1°C, 80 + 5 % RH for 2 days. Larval mortality was then visually assessed.
For the molecule `CN1COC(CNC(=O)c2ccc(C3=NOC(c4cc(Cl)cc(C(F)(F)F)c4)(C(F)(F)F)C3)c3c2CCC3)C1=O` (centres unmarked) [Compound I-3-3], the mortality at 2500 ppm is above 75%.

In a further assay the test system is Aphis craccivora. The assay can be described thus: Cowpea aphid (Aphis craccivora) spray test on potted cowpea plants. Format: in vivo. The note with it: aphids of various stages, after 72 hours, read-out: mortality in comparison with untreated controls. Here is the method: The active compound is dissolved at the desired concentration in a mixture of 1:1 (vol: vol) distilled water: acetone. Surfactant (Kinetic) is added at a rate of 0.01% (vol/vol). The test solution is prepared at the day of use.
Potted cowpea plants are colonized with approximately 30 - 50 aphids of various stages by man-ually transferring aphid-infested leaf clippings 24 hours before application. Plants are sprayed with the test solutions using a DeVilbiss® hand atomizer at 20- 30 psi (≈ 1.38 to 2.07 bar) after the pest population has been checked. Treated plants are maintained on light carts at about 25- 26°C. Estimate percent mortality is assessed after 72 hours.
With `CN1COC(CNC(=O)c2ccc(C3=NOC(c4cc(Cl)cc(C(F)(F)F)c4)(C(F)(F)F)C3)c3c2CCC3)C1=O` (centres unmarked) [Compound I-3-3], the mortality at 300 ppm is above 75%.
